Reference: ChEMBL document CHEMBL5380773, “Novel Feleucin-K3-Derived Peptides Modified with Sulfono-γ-AA Building Blocks Targeting Pseudomonas aeruginosa and Methicillin-Resistant Staphylococcus aureus Infections” (J Med Chem, 2023)
Calls of active or inactive are those of the source. Numbered stars: 1 amine (or outer) side, 2 acyl side, 3 side chain; on linkers, the order of the positions; unused ones are H or OH. Square brackets hold non-standard residues; d marks the D form. Peptide text beside a SMILES is read from it. * marks the point of attachment. X2 = CC(C)C[C@H](N)CN(CC(=O)[*:2])[*:1]; X1 = O=S(=O)(c1ccc(I)cc1)*

Key:
Cell membrane [1] = assay: Induction of membrane disruption in Pseudomonas aeruginosa ATCC 27853 assessed as separation of outer membrane at 2 to 4 times MIC incubated for 24 hrs by TEM analysis; assay type: subcellular
Pseudomonas aeruginosa [2] = assay: Antimicrobial activity against Pseudomonas aeruginosa ATCC 27853 infected in C57BL/6J mouse assessed as reduction in IL-6 at 2.5 mg/kg, ip measured after 72 hrs […]; assay type: functional, organism-based
Pseudomonas aeruginosa [3] = assay: Induction of DNA leakage in Pseudomonas aeruginosa ATCC 27853 after 1 to 6 hrs; assay type: functional, organism-based; conditions: time 1-6 hrs
Pseudomonas aeruginosa [4] = assay: Antimicrobial activity against Pseudomonas aeruginosa ATCC 27853 infected in C57BL/6J mouse assessed as reduction in lung bacterial load at 2.5 mg/kg, ip measured after 72 hrs […] (reference value: 6.4 10^3CFU/mg); assay type: functional
Pseudomonas aeruginosa [5] = assay: Induction of protein leakage in Pseudomonas aeruginosa ATCC 27853; assay type: functional, organism-based; conditions: TDE = time-dependent effect
Cell membrane [6] = assay: Induction of membrane disruption in methicillin resistant Staphylococcus aureus ATCC 33591 assessed as membrane collapse at high concentration incubated for 24 hrs by SEM analysis; assay type: subcellular
Cell membrane [7] = assay: Induction of membrane disruption in methicillin resistant Staphylococcus aureus ATCC 33591 assessed as separation […] at 2 to 4 times MIC incubated for 2 to 4 hrs by TEM analysis; assay type: subcellular; conditions: time 2-4 hrs
Staphylococcus aureus [8] = assay: Antimicrobial activity against methicillin resistant Staphylococcus aureus ATCC 33591 incubated for 18 hrs by microdilution method; assay type: functional
Pseudomonas aeruginosa [9] = assay: Antibiofilm activity against Pseudomonas aeruginosa ATCC 27853 at 4 to 8 ug/ml incubated for 24 hrs by crystal violet staining based microplate reader analysis; assay type: functional, organism-based; conditions: dose 4-8 µg/ml
Staphylococcus aureus [10] = assay: Antibiofilm activity against Staphylococcus aureus ATCC 25923 at 4 to 8 ug/ml incubated for 24 hrs by crystal violet staining based microplate reader analysis; assay type: functional, organism-based; conditions: dose 4-8 µg/ml
Pseudomonas aeruginosa [11] = assay: Induction of protein leakage in Pseudomonas aeruginosa ATCC 27853 after 1 to 6 hrs; assay type: functional, organism-based; conditions: time 1-6 hrs
Pseudomonas aeruginosa [12] = assay: Induction of resistant development in Pseudomonas aeruginosa ATCC 27853 at sub-MIC after 20 days; assay type: functional, organism-based; conditions: time 20.0 day
Cell membrane [13] = assay: Induction of membrane disruption in Pseudomonas aeruginosa ATCC 27853 assessed as membrane collapse at 2 to 4 times MIC incubated for 24 hrs by TEM analysis; assay type: subcellular
Staphylococcus aureus [14] = assay: Antibiofilm activity against methicillin resistant staphylococcus aureus ATCC 33591 at 4 to 8 ug/ml incubated for 24 hrs by crystal violet staining based microplate reader analysis; assay type: functional, organism-based; conditions: dose 4-8 µg/ml
Cell membrane [15] = assay: Induction of membrane disruption in methicillin resistant Staphylococcus aureus ATCC 33591 assessed as irregular atrophy at low concentration incubated for 24 hrs by SEM analysis; assay type: subcellular
Pseudomonas aeruginosa [16] = assay: Antibiofilm activity against Pseudomonas aeruginosa ATCC 27853 assessed as reduction in biofilm thickness at 2 times MBIC90 incubated for 24 hrs by confocal laser scanning microscopy analysis; assay type: functional
Cell membrane [17] = assay: Induction of membrane disruption in methicillin resistant Staphylococcus aureus ATCC 33591 assessed as separation of cytoplasmic membrane at 2 to 4 times MIC incubated for 2 to 4 hrs by TEM analysis; assay type: subcellular; conditions: time 2-4 hrs
Staphylococcus aureus [18] = assay: Antimicrobial activity against Staphylococcus aureus in presence of LPS/LTA; assay type: functional
Cell membrane [19] = assay: Induction of membrane disruption in methicillin resistant Staphylococcus aureus ATCC 33591 assessed as membrane shrinkage at low concentration incubated for 24 hrs by SEM analysis; assay type: subcellular
[20] = tested on: Staphylococcus epidermidis; assay: Antibiofilm activity against Staphylococcus epidermidis ATCC 12228 assessed as reduction in biofilm mass; assay type: functional, organism-based
Staphylococcus aureus [21] = assay: Bactericidal activity against methicillin resistant Staphylococcus aureus ATCC 33591 at 4 times MIC after 1 to 2.5 hrs by time kill assay; assay type: functional, organism-based; conditions: time 1-2.5 hrs
Staphylococcus aureus [22] = assay: Antimicrobial activity against methicillin resistant Staphylococcus aureus ATCC 33591 infected in BALB/c mouse assessed as reduction in inflammatory cell infiltration at 0.25 to 1 mg/kg infected with bacteria for 2 hrs prior to compound addition on 1, 24 and 48 hrs and measured after 72 hrs by H and E staining based assay; assay type: functional, organism-based; conditions: dose 0.25-1 mg/kg
Pseudomonas aeruginosa [23] = assay: Induction of DNA leakage in Pseudomonas aeruginosa ATCC 27853; assay type: functional, organism-based; conditions: TDE = time-dependent effect
Staphylococcus aureus [24] = assay: Bactericidal activity against Staphylococcus aureus ATCC 25923 at 4 times MIC after 2 to 4 hrs; assay type: functional, organism-based; conditions: time 2-4 hrs
[25] = tested on: Staphylococcus epidermidis; assay: Bactericidal activity against Staphylococcus epidermidis ATCC 12228 at 4 times MIC after 0.5 hrs; assay type: functional, organism-based
Cell membrane [26] = assay: Induction of membrane disruption in methicillin resistant Staphylococcus aureus ATCC 33591 assessed as cell lysis at high concentration incubated for 24 hrs by SEM analysis; assay type: subcellular
Pseudomonas aeruginosa [27] = assay: Induction of ROS generation in Pseudomonas aeruginosa ATCC 27853 by DCFH-DA dye based fluorescence assay; assay type: functional, organism-based; conditions: TDE = time-dependent effect
Staphylococcus aureus [28] = assay: Antimicrobial activity against methicillin resistant Staphylococcus aureus ATCC 33591 infected in skin wound mouse model assessed as reduction in edema at 1 to 4 mg/kg measured on day 3 and 7 by H and E staining based assay; assay type: functional, organism-based; conditions: dose 1-4 mg/kg, time 3-7 day
Cell membrane [29] = assay: Induction of membrane disruption in Pseudomonas aeruginosa ATCC 27853 assessed as membrane shrinkage at low concentration incubated for 24 hrs by SEM analysis; assay type: subcellular
Pseudomonas aeruginosa [30] = assay: Antibiofilm activity against Pseudomonas aeruginosa ATCC 27853 assessed as reduction in biofilm thickness at 1 times MBIC90 incubated for 24 hrs by confocal laser scanning microscopy analysis (reference value: 90 micrometer); assay type: functional
Staphylococcus aureus [31] = assay: Antibiofilm activity against methicillin resistant Staphylococcus aureus ATCC 33591 assessed as reduction in biofilm structures at MBIC90 by scanning electron microscopic analysis; assay type: functional, organism-based
DNA = assay: Binding affinity to Pseudomonas aeruginosa DNA at 8 times MIC incubated for 30 mins; assay type: nucleic-acid assay
Cell membrane [32] = assay: Induction of membrane disruption in Pseudomonas aeruginosa ATCC 27853 assessed as membrane collapse at high concentration incubated for 24 hrs by SEM analysis; assay type: subcellular
[33] = tested on: Staphylococcus epidermidis; assay: Antibiofilm activity against Staphylococcus epidermidis ATCC 12228 assessed as reduction in biofilm thickness; assay type: functional, organism-based
Staphylococcus aureus [34] = assay: Antimicrobial activity against methicillin resistant Staphylococcus aureus ATCC 33591 infected in skin wound mouse model assessed as reduction in number of inflammatory cells at 1 to 4 mg/kg measured on day 3 and 7 by H and E staining based assay; assay type: functional, organism-based; conditions: dose 1-4 mg/kg, time 3-7 day
Cell membrane [35] = assay: Induction of membrane disruption in Pseudomonas aeruginosa ATCC 27853 assessed as irregular atrophy at low concentration incubated for 24 hrs by SEM analysis; assay type: subcellular
Staphylococcus aureus [36] = assay: Antibiofilm activity against methicillin resistant Staphylococcus aureus ATCC 33591 assessed as reduction in biofilm mass; assay type: functional, organism-based
[37] = tested on: Staphylococcus epidermidis; assay: Antibiofilm activity against Staphylococcus epidermidis ATCC 12228 at 4 to 8 ug/ml incubated for 24 hrs by crystal violet staining based microplate reader analysis; assay type: functional, organism-based; conditions: dose 4-8 µg/ml
Pseudomonas aeruginosa [38] = assay: Antibiofilm activity against Pseudomonas aeruginosa ATCC 27853 assessed as reduction in biofilm structures at MBIC90 by scanning electron microscopic analysis; assay type: functional, organism-based
Cell membrane [39] = assay: Induction of membrane disruption in methicillin resistant Staphylococcus aureus ATCC 33591 assessed as membrane blebbing at low concentration incubated for 24 hrs by SEM analysis; assay type: subcellular

CC(C)C[C@H](N)CN(CC(=O)N[C@@H](CCCCN)C(=O)N[C@@H](CC(C)C)C(=O)N[C@@H](CC(C)C)C(=O)N[C@@H](CCCCN)C(=O)N[C@@H](CCCCN)C(=O)N[C@@H](CC(C)C)C(=O)N[C@@H](CC(C)C)C(N)=O)S(=O)(=O)c1ccc(I)cc1 (X1-[X2]KLLKKLL-NH2)
2.8 µg/mL: MIC (Staphylococcus aureus [8])
20 um: Activity (Pseudomonas aeruginosa [30])
3 10^3CFU/mg: Activity (Pseudomonas aeruginosa [4])
≥ 16 µg/mL: MIC (Staphylococcus aureus [18])
active: Activity (Cell membrane [1]) | Activity (Pseudomonas aeruginosa [2]) | Activity (Pseudomonas aeruginosa [3]) Dose-Dependent Effect | Activity (Pseudomonas aeruginosa [5]) Tde | Activity (Cell membrane [6]) | Activity (Cell membrane [7]) | Activity (Pseudomonas aeruginosa [9]) | Activity (Staphylococcus aureus [10]) | Activity (Pseudomonas aeruginosa [11]) Dose-Dependent Effect | Activity (Pseudomonas aeruginosa [12]) | Activity (Cell membrane [13]) | Activity (Staphylococcus aureus [14]) | Activity (Cell membrane [15]) | Activity (Cell membrane [17]) | Activity (Cell membrane [19]) | Activity [20] | Activity (Staphylococcus aureus [21]) | Activity (Staphylococcus aureus [22]) | Activity (Pseudomonas aeruginosa [23]) Tde | Activity (Staphylococcus aureus [24]) | Activity [25] | Activity (Cell membrane [26]) | Activity (Pseudomonas aeruginosa [27]) Tde | Activity (Staphylococcus aureus [28]) | Activity (Cell membrane [29]) | Activity (Staphylococcus aureus [31]) | Activity (DNA) | Activity (Cell membrane [32]) | Activity [33] | Activity (Staphylococcus aureus [34]) | Activity (Cell membrane [35]) | Activity (Staphylococcus aureus [36]) | Activity [37] | Activity (Pseudomonas aeruginosa [38]) | Activity (Cell membrane [39])
60 um: Activity (Pseudomonas aeruginosa [16])
